Laboratory results taken from patent US20210283058A1, “METHOD FOR PRODUCING SUSTAINED-RELEASE DRUG, AND SUSTAINED-RELEASE DRUG” (GUNZE LIMITED, priority 2016, published 2021).

Assay: Sustained release evaluated by weight loss curves from TG/DTA
Format: physicochemical
Details: conditions a): 30° C. to 40° C. at 5° C./min, then 40° C. for 30 minutes
Protocol: The sustained release of the sustained-release drug obtained in Example 4 was evaluated by the following method. Weight loss curves were drawn from TG curves obtained using a thermogravimetry/differential thermal analysis (TG/DTA) apparatus (PerkinElmer, STA 6000) under the following conditions: conditions a) the sustained-release drug is heated from 30° C. to 40° C. at 5° C./min, followed by keeping the drug isothermally at 40° C. for 30 minutes; and conditions b) the sustained-release drug is heated from 30° C. to 50° C. at 5° C./min, followed by keeping the drug isothermally at 50° C. for 30 minutes. FIG. 6(a) (conditions a) and FIG. 6(b) (conditions b) show the obtained weight loss curves.

release of medicinal ingredient (weight loss curve): significant volatility
SMILES: CC(C)[C@@H]1CC[C@@H](C)C[C@H]1O [L-menthol]
